How the values were obtained:
Type in all cases: in vivo
[1] = system: human subjects with end-stage renal disease; assay: Mean hemoglobin levels in human subjects with end-stage renal disease, 6 week treatment; settings: TIW; Compound A 1.5 mg/kg and 2.0 mg/kg or epoetin alfa; ESRD
[2] = system: human subjects with stage 3 or stage 4 chronic kidney disease; assay: MCV in stage 3 and stage 4 chronic kidney disease patients, 4 weeks; settings: stage 3/4 CKD
Experimental: In another series of experiments, the effect of a compound of the present invention on MCV was determined in stage 3 and stage 4 chronic kidney disease patients ([…]) as follows. Subjects with stage 3 or stage 4 chronic kidney disease were administered placebo or Compound A (1.5 mg/kg or 2.0 mg/kg) twice or thrice weekly for 4 weeks. MCV values were measured weekly.

[3] = system: human subjects with stage 3 or stage 4 chronic kidney disease; assay: MCV in stage 3 and stage 4 chronic kidney disease patients not receiving dialysis, fixed dose, 17 weeks; settings: fixed dose 50 mg or 100 mg twice weekly for 17 weeks, dose adjustments from week 5; stage 3/4 CKD not on dialysis
Experimental: In another set of experiments, the effect of compound of the present invention on MCV was determined in human subjects with stage 3 and stage 4 chronic kidney disease patients (eGFR<60 ml/min) as follows. Subjects with stage 3 or stage 4 chronic kidney disease not receiving dialysis were administered Compound A at a fixed dose of either 50 mg or 100 mg twice weekly for a period of 17 weeks. Dose adjustments were permitted from week 5 onward to correct and maintain subjects to a target hemoglobin range; however, doses were not allowed to exceed 2.2 mg/kg per dose. MCV values were measured weekly.

[4] = system: human patients, particularly having chronic kidney disease; assay: Overall safety and efficacy of tested doses in human patients; settings: 0.7 to 2.5 mg/kg administered TIW, BIW, or QW
From the text: In particular embodiments, the present invention provides an efficacious therapeutic compound for treating a human subject having reduced mean corpuscular volume (MCV). In one embodiment, the invention comprises the compound [(4-hydroxy-1-methyl-7-phenoxy-isoquinoline-3-carbonyl)-amino]-acetic acid for use in methods of increasing mean corpuscular volume (MCV) in a human subject.

[5] = system: human subjects with end-stage renal disease; assay: Mean corpuscular volume (MCV) in human subjects with end-stage renal disease on hemodialysis, 6 weeks TIW, no IV iron; settings: ESRD; for Mean Change from Baseline MCV at Day 43 (6 weeks) of Treatment: no IV iron; for MCV response following administration for six weeks (Table 1, in words): TIW for 6 weeks, Compound A 1.0, 1.5, 2.0 mg/kg or standard of care epoetin alfa; for Change from baseline of mean MCV over time during the 6 week treatment period (FIG. 1): TIW, Compound A 1.0, 1.5 or 2.0 mg/kg or epoetin alfa
Experimental: The effect of a compound of the present invention on MCV was determined in human subjects with end-stage renal disease as follows. Subjects had been receiving stable maintenance hemodialysis for at least 4 months prior to the initiation of the present study. Additionally, subjects had been maintained on standard of care stable doses of epoetin alfa for the treatment of anemia prior to initiation of the study described herein.
In order to examine differences in the MCV response in subjects treated with a compound of the invention compared to the MCV response in subjects treated with epoetin alpha (the current standard of care), all IV iron supplementation was halted two weeks prior to treatment initiation. Administration of oral iron was allowed.
[…] Baseline MCV levels were determined prior to treatment (mean of two screening period measurements with the Day 1 measurement). MCV levels were measured weekly throughout the 6-week study period.

Row | Molecule | Changes in mean hemoglobin levels during the 6 week treatment period (FIG. 2) [1] | Mean MCV over time (FIG. 3) ([2]; 1.5 mg/kg or 2.0 mg/kg twice or thrice weekly for 4 weeks) | Mean change from baseline MCV at Day 22 (FIG. 4) ([2]; 1.5 mg/kg or 2.0 mg/kg twice or thrice weekly, increase) | Mean MCV over time (FIG. 5) [3] | Efficacy of tested doses (increases in MCV) [4] | Safety of tested doses [4] | Mean Change from Baseline MCV at Day 43 (6 weeks) of Treatment ([5]; 1 mg/kg TIW, N = 10) | Mean increase in MCV over baseline after 6 weeks of treatment ([5]; 1.3 mg/kg TIW, N=5) [fL] | Mean Change from Baseline MCV at Day 43 (6 weeks) of Treatment ([5]; 1.5 mg/kg TIW, N = 9) | Mean increase in MCV over baseline after 6 weeks of treatment ([5]; 1.8 mg/kg TIW, N=12) [fL] | Mean Change from Baseline MCV at Day 43 (6 weeks) of Treatment ([5]; 2.0 mg/kg TIW, N = 9) | MCV response following administration for six weeks (Table 1, in words) [5] | Change from baseline of mean MCV over time during the 6 week treatment period (FIG. 1) [5] | Mean Change from Baseline MCV at Day 43 (6 weeks) of Treatment ([5]; standard of care doses TIW, N = 10) [fL]
1 | Cc1nc(C(=O)NCC(=O)O)c(O)c2ccc(Oc3ccccc3)cc12 [Compound A, [(4 hydroxy-1-methyl-7-phenoxy-isoquinoline-3-carbonyl)-amino]-acetic acid] | time-dependent increase in mean hemoglobin levels | mean MCV increased over time | greater than 3 fL | mean MCV initially increased and then stabilized over time | effective | safe | +0.90 fL | 2.03 | +1.46 fL | 2.27 | +2.50 fL | MCV increased in a dose-dependent manner | resulted in an increase in mean MCV over time | –
2 | Epoetin alfa: erythropoiesis-stimulating agent; current standard of care for anemia, used as control [reference compound] | did not result in an increase hemoglobin levels | – | – | – | – | – | – | – | – | – | – | showed decreases in MCV | no increase in mean MCV occurred | -0.12

Source: patent publication US20140057941A1, “Methods For Increasing Mean Corpuscular Volume” (priority 2011, published 2014)
